pIC50: −log10 of the molar value.
Experiments:
[1] = system: MDA-MB-231; assay: Antiproliferative activity against human MDA-MB-231 cells assessed as reduction in cell growth measured after 72 hrs by CCK8 assay; type: functional, cell-based; settings: MDA-MB-231, 72 h
[2] = system: A549; assay: Antiproliferative activity against human A549 cells assessed as reduction in cell growth measured after 72 hrs by CCK8 assay; type: functional, cell-based; settings: A549, 72 h
[3] = system: HCT-116; assay: Antiproliferative activity against human HCT116 cells assessed as reduction in cell growth measured after 72 hrs by CCK8 assay; type: functional, cell-based; settings: HCT-116, 72 h
[4] = system: MDA-MB-231; assay: Induction of cell cycle arrest in human MDA-MB-231 cells assessed as accumulation at G2 phase at 1 uM measured after 24 hrs by flow cytometry analysis (reference value: 23.69%); type: functional
[5] = system: MDA-MB-231; assay: Induction of cell cycle arrest in human MDA-MB-231 cells assessed as accumulation at G1 phase at 1 uM measured after 24 hrs by flow cytometry analysis (reference value: 43.68%); type: functional
[6] = system: MDA-MB-231; assay: Induction of apoptosis in human MDA-MB-231 cells assessed as apoptotic cells at 2.5 uM measured after 48 hrs by annexinV-FITC/propidium iodide staining based flow cytometry analysis (reference value: 5.62%); type: functional
[7] = system: MDA-MB-231; assay: Induction of apoptosis in human MDA-MB-231 cells assessed as increase in apoptotic cells measured after 48 hrs by annexinV-FITC/propidium iodide staining based flow cytometry analysis; type: functional, cell-based
[8] = system: MDA-MB-231; assay: Induction of cell cycle arrest in human MDA-MB-231 cells assessed as accumulation at S phase at 1 uM measured after 24 hrs by flow cytometry analysis (reference value: 32.63%); type: functional
[9] = system: HUVEC; assay: Cytotoxicity against HUVEC assessed as inhibition of cell growth measured after 72 hrs by CCK8 assay; type: cell-based; settings: Homo sapiens
[10] = system: MDA-MB-231; assay: Induction of apoptosis in human MDA-MB-231 cells assessed as apoptotic cells at 10 uM measured after 48 hrs by annexinV-FITC/propidium iodide staining based flow cytometry analysis (reference value: 5.62%); type: functional
[11] = system: MDA-MB-231; assay: Induction of cell cycle arrest in human MDA-MB-231 cells assessed as accumulation at G2 phase at 2 uM measured after 24 hrs by flow cytometry analysis (reference value: 23.69%); type: functional
[12] = system: MDA-MB-231; assay: Induction of apoptosis in human MDA-MB-231 cells assessed as apoptotic cells at 5 uM measured after 48 hrs by annexinV-FITC/propidium iodide staining based flow cytometry analysis (reference value: 5.62%); type: functional
[13] = system: MDA-MB-231; assay: Induction of cell cycle arrest in human MDA-MB-231 cells assessed as accumulation at S phase at 2 uM measured after 24 hrs by flow cytometry analysis (reference value: 32.63%); type: functional
[14] = system: MDA-MB-231; assay: Induction of cell cycle arrest in human MDA-MB-231 cells assessed as accumulation at G1 phase at 2 uM measured after 24 hrs by flow cytometry analysis (reference value: 43.68%); type: functional

SMILES | pIC50 [1] | pIC50 [2] | pIC50 [3] | other results
CC1=NN(c2ccccc2)C(=O)C12C=CC(=O)C=C2c1cccc(C)c1 (stereo unspecified) | 4.07 | 4.78 | < 4.00 | 
CC1=NN(c2ccc(Cl)cc2)C(=O)C12C=CC(=O)C=C2c1ccc(C)cc1 (stereo unspecified) | 4.84 | 4.48 | 4.99 | 
CC1=NN(c2cccc(Cl)c2)C(=O)C12C=CC(=O)C=C2c1ccc(C)cc1 (stereo unspecified) | 5.42 | 5.04 | 5.54 to 5.62 | Activity [4]: 21.23%; Activity [5]: 45.59 - 49.59%; Activity [6]: 9.7%; Activity [7]: Dose-dependent effect; Activity [8]: 29.18%; pIC50 [9]: 5.27; Activity [10]: 47.23%; Activity [11]: 17.5%; Activity [12]: 12.2%; Activity [13]: 14.27%; Activity [14]: 68.23%
CC1=NN(c2ccc(Br)cc2)C(=O)C12C=CC(=O)C=C2c1cccc(C)c1 (stereo unspecified) | 5.54 | 4.34 | < 4.00 | 
CC1=NN(c2ccc(Cl)cc2)C(=O)C12C=CC(=O)C=C2c1ccccc1 (stereo unspecified) | < 4.00 | < 4.00 | < 4.00 | 
CC1=NN(c2ccc(Cl)cc2)C(=O)C12C=CC(=O)C=C2c1cccc(C)c1 (stereo unspecified) | 4.57 | 4.42 | 4.88 | 
CC1=NN(c2ccc(C)cc2)C(=O)C12C=CC(=O)C=C2c1ccc(C)cc1 (stereo unspecified) | 5.29 | 4.43 | 5.01 | 
CC1=NN(c2cccc(Cl)c2)C(=O)C12C=CC(=O)C=C2c1cccc(C)c1 (stereo unspecified) | 4.65 | 4.70 | 5.43 | 
CC1=NN(c2ccc(Br)cc2)C(=O)C12C=CC(=O)C=C2c1ccccc1 (stereo unspecified) | < 4.00 | < 4.00 | < 4.00 | 
CC1=NN(c2ccc(Br)cc2)C(=O)C12C=CC(=O)C=C2c1ccc(C)cc1 (stereo unspecified) | 4.80 | 4.56 | 4.98 | 
CC1=NN(c2ccccc2)C(=O)C12C=CC(=O)C=C2c1ccc(C)cc1 (stereo unspecified) | 4.04 | 4.71 | 4.57 | 
CC1=NN(c2cccc(Cl)c2)C(=O)C12C=CC(=O)C=C2c1ccccc1 (stereo unspecified) | 4.52 | 4.73 | 5.15 | 
CC1=NN(c2ccc(C)cc2)C(=O)C12C=CC(=O)C=C2c1ccccc1 (stereo unspecified) | 4.33 | 4.33 | 4.78 | 
CC1=NN(c2ccc(C)cc2)C(=O)C12C=CC(=O)C=C2c1cccc(C)c1 (stereo unspecified) | 4.71 | 4.65 | 5.08 | 
CC1=NN(c2ccccc2)C(=O)C12C=CC(=O)C=C2c1ccccc1 (stereo unspecified) | 4.56 | 4.78 | 4.75 | 
